Laboratory results from US20250161307A1, “PYRAZOLOPYRIMIDINES AS MODULATORS OF SPERMINE OXIDASE” (Janssen Pharmaceutica NV, priority 2022, published 2025).
Structures can show the parent of a compound that is named as a salt.

Columns and labels:
hPAOX = hPAOX (Homo sapiens (Human), UniProt Q6QHF9); experiment: Human PAOX assay (HyPerBlu chemiluminescent detection of hydrogen peroxide); format: biochemical; settings: 60 pM recombinant PAOX, 20 μM N-acetylspermine substrate
Description: (§1) The direct detection of hydrogen peroxide produced from the enzymatic reaction of hSMOX or hPAOX in a biochemical assay format was measured using HyPerBlu (Lumigen, Southfield, MI), a small molecule boronate probe that reacts with hydrogen peroxide to generate a chemiluminescent signal. Inhibition of hSMOX or hPAOX enzyme results in a decrease in luminescence.
The hPAOX assay was run and the data analyzed similarly to the hSMOX assay described above, except the reactions contained 60 pM recombinant PAOX with an N-terminal His tag expressed from sf9 insect cells and used 20 μM N-acetylspermine as the substrate.

SMOX = SMOX (Homo sapiens (Human), UniProt Q9NWM0); experiment: Human SMOX assay (HyPerBlu chemiluminescent detection of hydrogen peroxide); format: biochemical; settings: 2.5 nM full length hSMOX, spermine substrate, 1 h at room temperature, luminescence read; read-out: SMOx_IC50
Chain of SMOX (Q9NWM0 whole entry): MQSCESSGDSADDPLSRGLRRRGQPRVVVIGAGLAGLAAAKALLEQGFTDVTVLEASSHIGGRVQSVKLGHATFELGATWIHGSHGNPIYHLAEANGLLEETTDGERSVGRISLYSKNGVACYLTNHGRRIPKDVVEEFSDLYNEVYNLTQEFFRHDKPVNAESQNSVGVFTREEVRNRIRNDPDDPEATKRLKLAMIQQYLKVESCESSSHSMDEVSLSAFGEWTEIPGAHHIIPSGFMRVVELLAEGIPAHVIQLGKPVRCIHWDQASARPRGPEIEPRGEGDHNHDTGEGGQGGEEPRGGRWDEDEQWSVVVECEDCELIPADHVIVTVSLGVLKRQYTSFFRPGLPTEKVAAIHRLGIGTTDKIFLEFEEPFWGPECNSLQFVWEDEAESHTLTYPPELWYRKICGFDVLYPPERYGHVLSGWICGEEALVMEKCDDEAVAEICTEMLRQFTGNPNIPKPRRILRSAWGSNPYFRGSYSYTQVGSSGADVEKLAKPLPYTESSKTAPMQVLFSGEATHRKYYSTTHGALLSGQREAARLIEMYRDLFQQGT
Description: as §1
Test compounds (75 nL) dissolved in DMSO were added to a 384-well white assay plate (Greiner Bio-one, catalog #784075) using an ECHO Acoustic Dispenser (Labcyte). Each compound was serially diluted 3-fold in DMSO to prepare an 11-point dose response curve (columns 1-22). Column 23 and 24 contained 75 nL of 2 mM chlorhexidine and DMSO, respectively, to represent the 100% inhibited versus the neutral control reactions.
Subsequently, 3 μL/well of the substrate solution prepared in assay buffer (10 mM Hepes, pH 7.4, 150 mM NaCl, 1 mM EGTA, 0.01% Pluronic F-127, 0.05% ovalbumin) was dispensed into the assay plate followed by 3 μL/well of full length hSMOX enzyme with an N-terminal His tag from E. coli prepared in assay buffer to initiate the reactions. After a 1 h incubation at room temperature, 6 μL/well of HyPerBlu was added. After a 30 min incubation, the hydrogen peroxide product generated from the hSMOX reactions was measured using an endpoint luminescence read on the PHERAStar FS/FSX microplate reader (BMG LABTECH).
The final assay conditions included 10 mM Hepes, pH 7.4, 150 mM NaCl, 1 mM EGTA, 0.01% Pluronic F-127, 0.05% ovalbumin, 2.5 nM hSMOX, 30 µM spermine, and 1.25% DMSO.
Dose-response curves were fit and compound IC50 values were determined using Genedata Screener (Genedata AG).

Chain of hPAOX (Q6QHF9 whole entry): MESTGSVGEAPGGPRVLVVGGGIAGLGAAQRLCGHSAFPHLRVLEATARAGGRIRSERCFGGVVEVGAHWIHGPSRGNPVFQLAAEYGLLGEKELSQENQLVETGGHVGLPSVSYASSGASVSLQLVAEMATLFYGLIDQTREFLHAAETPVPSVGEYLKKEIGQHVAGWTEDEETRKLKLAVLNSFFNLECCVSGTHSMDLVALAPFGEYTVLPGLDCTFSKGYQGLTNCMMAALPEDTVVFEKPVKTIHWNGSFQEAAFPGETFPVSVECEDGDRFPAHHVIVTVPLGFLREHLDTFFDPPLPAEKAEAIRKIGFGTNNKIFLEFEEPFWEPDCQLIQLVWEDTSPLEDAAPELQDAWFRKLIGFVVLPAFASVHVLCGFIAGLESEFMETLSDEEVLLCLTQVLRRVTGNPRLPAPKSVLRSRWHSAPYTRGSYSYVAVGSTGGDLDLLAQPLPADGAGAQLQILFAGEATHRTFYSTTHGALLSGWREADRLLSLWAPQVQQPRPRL

Row | SMILES | IC50 (hPAOX) | IC50 (SMOX)
1 | O=C(NCCc1ccccn1)c1cc2nc(-c3ccccc3)cc(-c3ccccc3)n2n1 [Example 39, 5,7-Diphenyl-N-(2-(pyridin-2-yl)ethyl)pyrazolo[1,5-a]pyrimidine-2-carboxamide] | 1420 nM | 2750 nM
2 | O=C(NCCc1ccccc1)c1cc2nc(-c3ccccc3)cc(-c3ccccc3)n2n1 [Example 40, N-Phenethyl-5,7-diphenylpyrazolo[1,5-a]pyrimidine-2-carboxamide] | > 31200 nM | > 31200 nM
3 | O=C(NC1CCC1)c1cc2nc(-c3ccccc3)cc(-c3ccccc3)n2n1 [Example 41, N-Cyclobutyl-5,7-diphenylpyrazolo[1,5-a]pyrimidine-2-carboxamide] | > 31200 nM | > 31200 nM
4 | CN1CC(C)(NC(=O)c2cc3nc(-c4ccccc4)cc(-c4ccccc4)n3n2)C1 [Example 42, N-(1,3-Dimethylazetidin-3-yl)-5,7-diphenylpyrazolo[1,5-a]pyrimidine-2-carboxamide] | 6780 nM | 2210 nM
5 | CN(C)CCN(C)C(=O)c1cc2nc(-c3ccccc3)cc(-c3ccccc3)n2n1 [Example 44, N-(2-(Dimethylamino)ethyl)-N-methyl-5,7-diphenylpyrazolo[1,5-a]pyrimidine-2-carboxamide] | > 31200 nM | 7340 nM
6 | CN1CC(N(C)C(=O)c2cc3nc(-c4ccccc4)cc(-c4ccccc4)n3n2)C1 [Example 45, N-Methyl-N-(1-methylazetidin-3-yl)-5,7-diphenylpyrazolo[1,5-a]pyrimidine-2-carboxamide] | 11600 nM | 1820 nM
7 | CN1CC(NC(=O)c2nn3c(-c4ccccc4)cc(-c4ccccc4)nc3c2I)C1 [Example 46, 3-Iodo-N-(1-methylazetidin-3-yl)-5,7-diphenylpyrazolo[1,5-a]pyrimidine-2-carboxamide] | 5410 nM | 33 nM
8 | CN1CCC(NC(=O)c2nn3c(-c4ccccc4)cc(-c4ccccc4)nc3c2I)C1 (stereo not drawn) [Example 47, 3-Iodo-N-(1-methylpyrrolidin-3-yl)-5,7-diphenylpyrazolo[1,5-a]pyrimidine-2-carboxamide] | 20600 nM | 125 nM
9 | CN1CCC(C)(CNC(=O)c2nn3c(-c4ccccc4)cc(-c4ccccc4)nc3c2I)C1 (stereo not drawn) [Example 48, N-((1,3-Dimethylpyrrolidin-3-yl)methyl)-3-iodo-5,7-diphenylpyrazolo[1,5-a]pyrimidine-2-carboxamide] | 7590 nM | 698 nM
10 | CN1CC(NC(=O)c2nn3c(-c4ccccc4)cc(-c4ccccc4)nc3c2Cl)C1 [Example 49, 3-Chloro-N-(1-methylazetidin-3-yl)-5,7-diphenylpyrazolo[1,5-a]pyrimidine-2-carboxamide] | 9060 nM | 108 nM
11 | Cc1c(C(=O)NC2CN(C)C2)nn2c(-c3ccccc3)cc(-c3ccccc3)nc12 [Example 50, 3-Methyl-N-(1-methylazetidin-3-yl)-5,7-diphenylpyrazolo[1,5-a]pyrimidine-2-carboxamide] | 3130 nM | 110 nM
12 | Cc1c(C(=O)NC2CCN(C)C2)nn2c(-c3ccccc3)cc(-c3ccccc3)nc12 (stereo not drawn) [Example 51, 3-Methyl-N-(1-methylpyrrolidin-3-yl)-5,7-diphenylpyrazolo[1,5-a]pyrimidine-2-carboxamide] | 7710 nM | 821 nM
13 | CN1CC(NC(=O)c2nn3c(-c4ccccc4)cc(-c4ccccc4)nc3c2F)C1 [Example 52, 3-Fluoro-N-(1-methylazetidin-3-yl)-5,7-diphenylpyrazolo[1,5-a]pyrimidine-2-carboxamide] | 1920 nM | 215 nM
14 | CN1CC(NC(=O)c2nn3c(-c4ccccc4)cc(-c4ccccc4)nc3c2C#N)C1 [Example 53, 3-Cyano-N-(1-methylazetidin-3-yl)-5,7-diphenylpyrazolo[1,5-a]pyrimidine-2-carboxamide] | 13300 nM | 273 nM
15 | Cc1c(C(=O)NCC2(C)CCN(C)C2)nn2c(-c3ccccc3)cc(-c3ccccc3)nc12 (stereo not drawn) [Example 54, N-((1,3-Dimethylpyrrolidin-3-yl)methyl)-3-methyl-5,7-diphenylpyrazolo[1,5-a]pyrimidine-2-carboxamide] | 30300 nM | 1490 nM
16 | CC1C(NC(=O)c2cc3nc(-c4ccccc4)cc(-c4ccccc4)n3n2)CN1C (stereo not drawn) [Example 55, N-(1,2-Dimethylazetidin-3-yl)-5,7-diphenylpyrazolo[1,5-a]pyrimidine-2-carboxamide] | 6530 nM | 593 nM
17 | O=C(NCCCn1ccnc1)c1cc2nc(-c3ccccc3)cc(N3CCC3)n2n1 [Example 56, N-(3-(1H-Imidazol-1-yl)propyl)-7-(azetidin-1-yl)-5-phenylpyrazolo[1,5-a]pyrimidine-2-carboxamide] | 3730 nM | 874 nM
18 | O=C(NCCCn1ccnc1)c1cc2nc(-c3ccccc3)cc(N3CCOCC3)n2n1 [Example 59, N-(3-(1H-Imidazol-1-yl)propyl)-7-morpholino-5-phenylpyrazolo[1,5-a]pyrimidine-2-carboxamide] | 5710 nM | 2880 nM
19 | CN1CCN(c2cc(-c3ccccc3)nc3cc(C(=O)NCCCn4ccnc4)nn23)CC1 [Example 60, N-(3-(1H-Imidazol-1-yl)propyl)-7-(4-methylpiperazin-1-yl)-5-phenylpyrazolo[1,5-a]pyrimidine-2-carboxamide] | 24800 nM | > 31200 nM
20 | O=C(NCCCn1ccnc1)c1cc2nc(-c3ccccc3)cc(N3CC4CC4C3)n2n1 (stereo not drawn) [Example 61, N-(3-(1H-Imidazol-1-yl)propyl)-7-(3-azabicyclo[3.1.0]hexan-3-yl)-5-phenylpyrazolo[1,5-a]pyrimidine-2-carboxamide] | 3930 nM | 486 nM
21 | O=C(NCCCn1ccnc1)c1cc2nc(-c3ccccc3)cc(NC3CCC3)n2n1 [Example 64, N-(3-(1H-Imidazol-1-yl)propyl)-7-(cyclobutylamino)-5-phenylpyrazolo[1,5-a]pyrimidine-2-carboxamide] | 1460 nM | 779 nM
22 | O=C(NCCCn1ccnc1)c1cc2nc(-c3ccccc3)cc(NC3CCCC3)n2n1 [Example 65, N-(3-(1H-imidazol-1-yl)propyl)-7-(cyclopentylamino)-5-phenylpyrazolo[1,5-a]pyrimidine-2-carboxamide] | 2450 nM | 595 nM
23 | O=C(NCCCn1ccnc1)c1cc2nc(-c3ccccc3)cc(N3CCCC3)n2n1 [Example 66, N-(3-(1H-imidazol-1-yl)propyl)-5-phenyl-7-(pyrrolidin-1-yl)pyrazolo[1,5-a]pyrimidine-2-carboxamide] | 2500 nM | 395 nM
24 | CN1CC(NC(=O)c2cc3nc(-c4ccccc4)cc(N4CCC[C@@H](O)C4)n3n2)C1 [Example 67, (R)-7-(3-hydroxypiperidin-1-yl)-N-(1-methylazetidin-3-yl)-5-phenylpyrazolo[1,5-a]pyrimidine-2-carboxamide] | 3600 nM | 177 nM
25 | CN(C)CCCNC(=O)c1cc2nc(-c3ccccc3)cc(N3CCCCC3)n2n1 [Example 70, N-(3-(dimethylamino)propyl)-5-phenyl-7-(piperidin-1-yl)pyrazolo[1,5-a]pyrimidine-2-carboxamide] | 3360 nM | 930 nM
26 | CN1CCC(NC(=O)c2cc3nc(-c4ccccc4)cc(N4CCCCC4)n3n2)C1 (stereo not drawn) [Example 71, N-(1-methylpyrrolidin-3-yl)-5-phenyl-7-(piperidin-1-yl)pyrazolo[1,5-a]pyrimidine-2-carboxamide trifluoroacetate] | 5360 nM | 988 nM
27 | CN1CCC(NC(=O)c2cc3nc(-c4ccccc4)cc(N4CCCCC4)n3n2)CC1 [Example 74, N-(1-methylpiperidin-4-yl)-5-phenyl-7-(piperidin-1-yl)pyrazolo[1,5-a]pyrimidine-2-carboxamide] | 9830 nM | 17700 nM
28 | CC(C)Oc1cc(-c2ccccc2)nc2cc(C(=O)NC3CN(C)C3)nn12 [Example 75, 7-isopropoxy-N-(1-methylazetidin-3-yl)-5-phenylpyrazolo[1,5-a]pyrimidine-2-carboxamide] | 26700 nM | 737 nM
29 | CN1CC(NC(=O)c2cc3nc(-c4ccccc4)cc(Oc4ccccc4)n3n2)C1 [Example 76, N-(1-methylazetidin-3-yl)-7-phenoxy-5-phenylpyrazolo[1,5-a]pyrimidine-2-carboxamide] | 5370 nM | 725 nM
30 | CC(=O)Nc1cccc(-c2cc(-c3ccccc3)nc3cc(C(=O)NCCCn4ccnc4)nn23)c1 [Example 77, N-(3-(1H-imidazol-1-yl)propyl)-7-(3-acetamidophenyl)-5-phenylpyrazolo[1,5-a]pyrimidine-2-carboxamide] | 544 nM | 519 nM
